Several values for one entry are separate records, joined by “and”; a condition that tells them apart may be missing. Equal values may be shown once. Read-outs that look alike come from different tables or passages of the source.
Assays:
[1] = target: T1, human GPR40 (Homo sapiens, UniProt O14842); test: GPR40 binding assay, partial agonist tracer [3H]L358; design: expressed in transfected cells; host or cells: CHO / CHO-K1 cells, membrane preparation;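 as to %Bound: 100% is tracer binding with DMSO alone and 0% is full displacement by a standard compound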
T1 sequence (O14842 whole entry): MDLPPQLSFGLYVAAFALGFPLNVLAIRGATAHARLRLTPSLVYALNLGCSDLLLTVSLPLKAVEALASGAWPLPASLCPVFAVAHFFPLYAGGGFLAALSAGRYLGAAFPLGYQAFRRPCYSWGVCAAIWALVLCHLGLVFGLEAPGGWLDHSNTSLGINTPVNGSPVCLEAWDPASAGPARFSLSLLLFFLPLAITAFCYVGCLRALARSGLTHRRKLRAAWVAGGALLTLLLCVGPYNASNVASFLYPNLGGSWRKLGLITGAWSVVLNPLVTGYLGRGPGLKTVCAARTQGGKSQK
In short: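 Affinity at two allosterically coupled GPR40 sites was probed by displacement or enhancement of radiotracer: the partial agonist [3H]L358 and the AgoPAM [3H]25. Human GPR40 CHO-cell membranes (5 μg/well) on WGA SPA beads were incubated with compound and tracer at room temperature, then counted. Outputs: IC50 and maximal % bound.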

[2] = target: T2, rat GPR40 (Rattus norvegicus, UniProt Q8K3T4); test: Rat GPR40 IP1 accumulation assay; assay type: cell-based
T2 construct: expressed in transfected cells; host or cells: CHO-K1 (methods)
T2 sequence (Q8K3T4 whole entry): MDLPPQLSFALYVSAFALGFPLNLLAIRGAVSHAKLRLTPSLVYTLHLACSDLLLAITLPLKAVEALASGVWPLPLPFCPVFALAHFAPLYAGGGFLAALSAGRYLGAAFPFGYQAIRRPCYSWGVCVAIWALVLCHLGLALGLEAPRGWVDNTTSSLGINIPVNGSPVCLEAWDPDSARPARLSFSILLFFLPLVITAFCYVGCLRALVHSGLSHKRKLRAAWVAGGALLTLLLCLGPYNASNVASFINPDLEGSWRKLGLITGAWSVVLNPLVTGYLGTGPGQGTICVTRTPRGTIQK
In short: (§1)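 IP1 accumulation is measured by HTRF after 60 min compound stimulation at room temperature in LiCl (50 mM)-containing buffer. Compounds run in ½-log dilutions from a final top concentration of 10 μM or 1 μM. Cells are hGPR40/HEK293, mGPR40/CHO-K1 and rGPR40/CHO-K1. Activity is scaled between DMSO and a partial allosteric agonist and fitted to a 4-parameter curve for EC50 and maximum.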

[3] = target: T3, mouse GPR40 (Mus musculus, UniProt Q76JU9); test: Mouse GPR40 IP1 accumulation assay; assay type: cell-based
T3 construct: expressed in transfected cells; host or cells: CHO-K1 (methods)
T3 sequence (Q76JU9 whole entry): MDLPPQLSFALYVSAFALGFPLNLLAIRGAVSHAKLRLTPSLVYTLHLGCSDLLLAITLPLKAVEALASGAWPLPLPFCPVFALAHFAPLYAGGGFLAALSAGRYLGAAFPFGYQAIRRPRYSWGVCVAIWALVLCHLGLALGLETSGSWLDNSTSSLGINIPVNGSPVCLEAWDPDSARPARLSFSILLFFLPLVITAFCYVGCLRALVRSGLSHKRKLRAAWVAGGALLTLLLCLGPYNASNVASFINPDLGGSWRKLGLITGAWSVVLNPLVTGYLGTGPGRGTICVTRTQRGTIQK
In short: as §1

[4] = target: T1, human GPR40; test: Human GPR40 IP1 accumulation assay; assay type: cell-based; design: expressed in transfected cells
In short: as §1

[5] = radioligand L-001533358, dose 0.318285 nM
[6] = radioligand L-001533358, dose 1.00578 nM
[7] = radioligand L-001533358, dose 3.17827 nM
[8] = radioligand L-001533358, dose 10.0433 nM
[9] = radioligand L-001533358, dose 31.7369 nM
[10] = radioligand L-001533358, dose 100.289 nM
[11] = radioligand L-001533358, dose 316.912 nM
[12] = radioligand L-001533358, dose 1001.44 nM
[13] = radioligand L-001533358, dose 3164.56 nM
[14] = radioligand L-001533358, dose 10000 nM
[15] = maximal % activity vs in-house partial agonist control

Binding Results, % in parentheses, [^3H]L-358 ([1]; WT human GPR40, maximal % (not defined)): (91%)
binding of [^3H]L358 ([1]; human GPR40 membranes, competition binding): displace
% Bound Normalized to 100 [1, 5]: 100.25%
%Bound [1, 5]: 75.22%
inhibition at 0.000318285 µM [1, 5]: 15.4%
% Bound Normalized to 100 [1, 6]: 73.95%
%Bound [1, 6]: 48.92%
inhibition at 0.00100578 µM [1, 6]: 31.9%
% Bound Normalized to 100 [1, 7]: 83.61%
%Bound [1, 7]: 58.58%
inhibition at 0.00317827 µM [1, 7]: 49.3%
% Bound Normalized to 100 [1, 8]: 73.41%
%Bound [1, 8]: 48.38%
inhibition at 0.0100433 µM [1, 8]: 73.5%
% Bound Normalized to 100 [1, 9]: 43.62%
%Bound [1, 9]: 18.59%
inhibition at 0.0317369 µM [1, 9]: 84.4%
% Bound Normalized to 100 [1, 10]: 17.05%
%Bound [1, 10]: -7.97%
inhibition at 0.100289 µM [1, 10]: 102%
% Bound Normalized to 100 [1, 11]: 19.20%
%Bound [1, 11]: -5.83%
inhibition at 0.316912 µM [1, 11]: 111%
% Bound Normalized to 100 [1, 12]: 13.56%
%Bound [1, 12]: -11.46%
inhibition at 1.00144 µM [1, 12]: 105%
% Bound Normalized to 100 [1, 13]: 20.27%
%Bound [1, 13]: -4.75%
inhibition at 3.16456 µM [1, 13]: 111%
% Bound Normalized to 100 [1, 14]: 28.06%
%Bound [1, 14]: 3.03%
inhibition at 10 µM [1, 14]: 109%
Rat GPR40 Receptor Activation (%) ([2]; dose 1.20E-10 M): -1.85%
Rat GPR40 Receptor Activation (%) ([2]; dose 1.99E-06 M): 186%
Rat GPR40 Receptor Activation (%) ([2]; dose 1.99E-07 M): 172%
Rat GPR40 Receptor Activation (%) ([2]; dose 1.99E-08 M): 148%
Rat GPR40 Receptor Activation (%) ([2]; dose 2.00E-09 M): 65%
Rat GPR40 Receptor Activation (%) ([2]; dose 5.98E-07 M): 173%
Rat GPR40 Receptor Activation (%) ([2]; dose 5.98E-08 M): 144%
Rat GPR40 Receptor Activation (%) ([2]; dose 5.99E-09 M): 117%
Rat GPR40 Receptor Activation (%) ([2]; dose 5.99E-10 M): 23%
EC50 ([2]; individual replicates (n), read-out: Rat GPR40 Functional Assay EC50): 5.5 nM and 6.1 nM and 8.7 nM and 9.9 nM and 11.6 nM and 12.4 nM and 13.4 nM and 3.2 nM and 2.7 nM and 4.1 nM
Efficacy (% Activation), Rat [2, 15]: (158%)
EC50 ([2]; mean ± SD, n = 2–20, IP accumulation, read-out: Potency [EC50, nM] ± SD, Rat): 7.8 ± 4 nM
Mouse GPR40 Receptor Activation (%) ([3]; dose 1.20E-10 M): -5.6%
Mouse GPR40 Receptor Activation (%) ([3]; dose 1.99E-06 M): 140%
Mouse GPR40 Receptor Activation (%) ([3]; dose 1.99E-07 M): 129%
Mouse GPR40 Receptor Activation (%) ([3]; dose 1.99E-08 M): 125%
Mouse GPR40 Receptor Activation (%) ([3]; dose 2.00E-09 M): 44%
Mouse GPR40 Receptor Activation (%) ([3]; dose 5.98E-07 M): 147%
Mouse GPR40 Receptor Activation (%) ([3]; dose 5.98E-08 M): 122%
Mouse GPR40 Receptor Activation (%) ([3]; dose 5.99E-09 M): 87%
Mouse GPR40 Receptor Activation (%) ([3]; dose 5.99E-10 M): 23%
EC50 ([3]; individual replicates (n), read-out: Mouse GPR40 Functional Assay EC50): 2.6 nM and 3.1 nM and 3.4 nM and 4.3 nM and 4.6 nM and 5.4 nM and 5.5 nM and 6.5 nM and 6.9 nM and 8.2 nM and 1.6 nM and 1.9 nM
Efficacy (% Activation), Mouse [3, 15]: (145%)
EC50 ([3]; mean ± SD, n = 2–20, IP accumulation, read-out: Potency [EC50, nM] ± SD, Mouse): 4.4 ± 2.1 nM
Human GPR40 Receptor Activation (%) ([4]; dose 2.00E-06 M): 100%
Human GPR40 Receptor Activation (%) ([4]; dose 2.00E-07 M): 90%
Human GPR40 Receptor Activation (%) ([4]; dose 2.00E-08 M): 81%
Human GPR40 Receptor Activation (%) ([4]; dose 2.00E-09 M): 31%
Human GPR40 Receptor Activation (%) ([4]; dose 2.00E-10 M): -1.34%
Human GPR40 Receptor Activation (%) ([4]; dose 6.00E-07 M): 95%
Human GPR40 Receptor Activation (%) ([4]; dose 6.00E-08 M): 98%
Human GPR40 Receptor Activation (%) ([4]; dose 6.00E-09 M): 48%
Human GPR40 Receptor Activation (%) ([4]; dose 6.00E-10 M): 16%
Human GPR40 Receptor Activation (%) ([4]; dose 6.00E-11 M): 3.69%
Efficacy (% Activation), Human [4, 15]: (102%)
Structure (SMILES): Cc1cc(OCCCS(C)(=O)=O)cc(C)c1-c1cccc(COc2ccc3c(c2)OC[C@H]3CC(=O)O)c1 [TAK-875, reference compound]
HUMAN GPR40 Binding Data %Act ([1]; TAK875 sheet, individual replicates (n), tracer not given): 92% and 91% and 95% and 87% and 103% and 89% and 72% and 84% and 93% and 94%
Rat GPR40 Functional Assay %Act ([2]; individual replicates (n)): 129% and 176% and 138% and 164% and 159% and 199% and 148% and 141% and 177% and 150%
Mouse GPR40 Functional Assay %Act ([3]; individual replicates (n)): 131% and 140% and 174% and 156% and 154% and 110% and 134% and 185% and 133% and 107% and 152%
HUMAN GPR40 Functional Assay %Act ([4]; individual replicates (n)): 122% and 82% and 93% and 96% and 99% and 104% and 130% and 79%
